# According to article PMC7156458, “Synthetic biology based construction of biological activity-related library of fungal decalin-containing diterpenoid pyrones” (Nature Communications, 2020):
# Biological target: Aβ42 (Homo sapiens, UniProt P05067)
# Assay: Th-T (thioflavin-T) assay of Aβ42 aggregation
# Format: biochemical
# Settings: for Th-T assay plate reading, mean of three wells (Supplementary Fig. 47): source data, Ab alone and No Ab as controls
# Chain of Aβ42 (P05067 672-713): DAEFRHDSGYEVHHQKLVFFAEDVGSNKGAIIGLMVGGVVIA
structure (smiles),measurement,setting,value
C=C1CC[C@H]2[C@]3(C)C[C@@H](C=C(C)C)O[C@H]3CC[C@]2(C)[C@@H]1Cc1c(OC)oc(CO)c(C)c1=O [Compound 17],"Th-T fluorescence, mean of three wells","Aβ42 aggregation time course, reading M117",3.6742
same,"Th-T fluorescence, mean of three wells","Aβ42 aggregation time course, reading M118",3.663
same,"Th-T fluorescence, mean of three wells","Aβ42 aggregation time course, reading M119",3.652
same,"Th-T fluorescence, mean of three wells","Aβ42 aggregation time course, reading M120",3.6432
same,"Th-T fluorescence, mean of three wells","Aβ42 aggregation time course, reading M121",3.639
same,"Th-T fluorescence, mean of three wells","Aβ42 aggregation time course, reading M122",3.631
same,"Th-T fluorescence, mean of three wells","Aβ42 aggregation time course, reading M123",3.625
same,"Th-T fluorescence, mean of three wells","Aβ42 aggregation time course, reading M124",3.645
same,"Th-T fluorescence, mean of three wells","Aβ42 aggregation time course, reading M125",3.636
same,"Th-T fluorescence, mean of three wells","Aβ42 aggregation time course, reading M126",3.626
same,"Th-T fluorescence, mean of three wells","Aβ42 aggregation time course, reading M127",3.63
same,"Th-T fluorescence, mean of three wells","Aβ42 aggregation time course, reading M128",3.617
same,"Th-T fluorescence, mean of three wells","Aβ42 aggregation time course, reading M129",3.6361
same,"Th-T fluorescence, mean of three wells","Aβ42 aggregation time course, reading M130",3.633
same,"Th-T fluorescence, mean of three wells","Aβ42 aggregation time course, reading M131",3.621
same,"Th-T fluorescence, mean of three wells","Aβ42 aggregation time course, reading M132",3.621
same,"Th-T fluorescence, mean of three wells","Aβ42 aggregation time course, reading M133",3.612
same,"Th-T fluorescence, mean of three wells","Aβ42 aggregation time course, reading M134",3.622
same,"Th-T fluorescence, mean of three wells","Aβ42 aggregation time course, reading M135",3.594
same,"Th-T fluorescence, mean of three wells","Aβ42 aggregation time course, reading M136",3.604
same,"Th-T fluorescence, mean of three wells","Supplementary Fig. 47, reading M137",3.585
same,"Th-T fluorescence, mean of three wells","Supplementary Fig. 47, reading M138",3.583
same,"Th-T fluorescence, mean of three wells","Supplementary Fig. 47, reading M139",3.585
same,"Th-T fluorescence, mean of three wells","Supplementary Fig. 47, reading M140",3.575
same,"Th-T fluorescence, mean of three wells","Supplementary Fig. 47, reading M141",3.571
same,"Th-T fluorescence, mean of three wells","Supplementary Fig. 47, reading M142",3.57
same,"Th-T fluorescence, mean of three wells","Supplementary Fig. 47, reading M143",3.569
same,"Th-T fluorescence, mean of three wells","Supplementary Fig. 47, reading M144",3.562
same,"Th-T fluorescence, mean of three wells","Supplementary Fig. 47, reading M145",3.551
same,"Th-T fluorescence, mean of three wells","Supplementary Fig. 47 source data, measurement M37 of time course",3.249
same,"Th-T fluorescence, mean of three wells","Supplementary Fig. 47 source data, measurement M38 of time course",3.349
same,"Th-T fluorescence, mean of three wells","Supplementary Fig. 47 source data, measurement M39 of time course",3.376
same,"Th-T fluorescence, mean of three wells","Supplementary Fig. 47 source data, measurement M40 of time course",3.376
same,"Th-T fluorescence, mean of three wells","Supplementary Fig. 47 source data, measurement M41 of time course",3.367
same,"Th-T fluorescence, mean of three wells","Supplementary Fig. 47 source data, measurement M42 of time course",3.371
same,"Th-T fluorescence, mean of three wells","Supplementary Fig. 47 source data, measurement M43 of time course",3.406
same,"Th-T fluorescence, mean of three wells","Supplementary Fig. 47 source data, measurement M44 of time course",3.418
same,"Th-T fluorescence, mean of three wells","Supplementary Fig. 47 source data, measurement M45 of time course",3.459
same,"Th-T fluorescence, mean of three wells","Supplementary Fig. 47 source data, measurement M46 of time course",3.456
same,"Th-T fluorescence, mean of three wells","Supplementary Fig. 47 source data, measurement M47 of time course",3.465
same,"Th-T fluorescence, mean of three wells","Supplementary Fig. 47 source data, measurement M48 of time course",3.489
same,"Th-T fluorescence, mean of three wells","Supplementary Fig. 47 source data, measurement M49 of time course",3.497
same,"Th-T fluorescence, mean of three wells","Supplementary Fig. 47 source data, measurement M50 of time course",3.516
same,"Th-T fluorescence, mean of three wells","Supplementary Fig. 47 source data, measurement M51 of time course",3.557
same,"Th-T fluorescence, mean of three wells","Supplementary Fig. 47 source data, measurement M52 of time course",3.55
same,"Th-T fluorescence, mean of three wells","Supplementary Fig. 47 source data, measurement M53 of time course",3.554
same,"Th-T fluorescence, mean of three wells","Supplementary Fig. 47 source data, measurement M54 of time course",3.5687
same,"Th-T fluorescence, mean of three wells","Supplementary Fig. 47 source data, measurement M55 of time course",3.6
same,"Th-T fluorescence, mean of three wells","Supplementary Fig. 47 source data, measurement M56 of time course",3.63
same,"Th-T assay plate reading, mean of three wells (Supplementary Fig. 47)",measurement M1,0.2517
same,"Th-T assay plate reading, mean of three wells (Supplementary Fig. 47)",measurement M2,0.2528
same,"Th-T assay plate reading, mean of three wells (Supplementary Fig. 47)",measurement M3,0.2961
same,"Th-T assay plate reading, mean of three wells (Supplementary Fig. 47)",measurement M4,0.352
same,"Th-T assay plate reading, mean of three wells (Supplementary Fig. 47)",measurement M5,0.4245
same,"Th-T assay plate reading, mean of three wells (Supplementary Fig. 47)",measurement M6,0.4941
same,"Th-T assay plate reading, mean of three wells (Supplementary Fig. 47)",measurement M7,0.5517
same,"Th-T assay plate reading, mean of three wells (Supplementary Fig. 47)",measurement M8,0.6173
same,"Th-T assay plate reading, mean of three wells (Supplementary Fig. 47)",measurement M9,0.6978
same,"Th-T assay plate reading, mean of three wells (Supplementary Fig. 47)",measurement M10,0.9149
same,"Th-T assay plate reading, mean of three wells (Supplementary Fig. 47)",measurement M11,1.381
same,"Th-T assay plate reading, mean of three wells (Supplementary Fig. 47)",measurement M12,1.864
same,"Th-T assay plate reading, mean of three wells (Supplementary Fig. 47)",measurement M13,2.227
same,"Th-T assay plate reading, mean of three wells (Supplementary Fig. 47)",measurement M14,2.461
same,"Th-T assay plate reading, mean of three wells (Supplementary Fig. 47)",measurement M15,2.575
same,"Th-T assay plate reading, mean of three wells (Supplementary Fig. 47)",measurement M16,2.619
same,"Th-T fluorescence, mean of three wells","reading M17, Supplementary Fig. 47 source data",2.658
same,"Th-T fluorescence, mean of three wells","reading M18, Supplementary Fig. 47 source data",2.682
same,"Th-T fluorescence, mean of three wells","reading M19, Supplementary Fig. 47 source data",2.683
same,"Th-T fluorescence, mean of three wells","reading M20, Supplementary Fig. 47 source data",2.726
same,"Th-T fluorescence, mean of three wells","reading M21, Supplementary Fig. 47 source data",2.74
same,"Th-T fluorescence, mean of three wells","reading M22, Supplementary Fig. 47 source data",2.776
same,"Th-T fluorescence, mean of three wells","reading M23, Supplementary Fig. 47 source data",2.7833
same,"Th-T fluorescence, mean of three wells","reading M24, Supplementary Fig. 47 source data",2.808
same,"Th-T fluorescence, mean of three wells","reading M25, Supplementary Fig. 47 source data",2.851
same,"Th-T fluorescence, mean of three wells","reading M26, Supplementary Fig. 47 source data",2.893
same,"Th-T fluorescence, mean of three wells","reading M27, Supplementary Fig. 47 source data",2.879
same,"Th-T fluorescence, mean of three wells","reading M28, Supplementary Fig. 47 source data",2.908
same,"Th-T fluorescence, mean of three wells","reading M29, Supplementary Fig. 47 source data",2.914
same,"Th-T fluorescence, mean of three wells","reading M30, Supplementary Fig. 47 source data",2.944
same,"Th-T fluorescence, mean of three wells","reading M31, Supplementary Fig. 47 source data",2.96
same,"Th-T fluorescence, mean of three wells","reading M32, Supplementary Fig. 47 source data",3.025
same,"Th-T fluorescence, mean of three wells","reading M33, Supplementary Fig. 47 source data",3.031
same,"Th-T fluorescence, mean of three wells","reading M34, Supplementary Fig. 47 source data",3.078
same,"Th-T fluorescence, mean of three wells","reading M35, Supplementary Fig. 47 source data",3.103
same,"Th-T fluorescence, mean of three wells","reading M36, Supplementary Fig. 47 source data",3.12
same,"Th-T fluorescence, mean of three wells","time course, reading M57",3.617
same,"Th-T fluorescence, mean of three wells","time course, reading M58",3.628
same,"Th-T fluorescence, mean of three wells","time course, reading M59",3.637
same,"Th-T fluorescence, mean of three wells","time course, reading M60",3.637
same,"Th-T fluorescence, mean of three wells","time course, reading M61",3.653
same,"Th-T fluorescence, mean of three wells","time course, reading M62",3.653
same,"Th-T fluorescence, mean of three wells","time course, reading M63",3.655
same,"Th-T fluorescence, mean of three wells","time course, reading M64",3.667
same,"Th-T fluorescence, mean of three wells","time course, reading M65",3.662
same,"Th-T fluorescence, mean of three wells","time course, reading M66",3.684
same,"Th-T fluorescence, mean of three wells","time course, reading M67",3.7096
same,"Th-T fluorescence, mean of three wells","time-course reading M97, Supplementary Fig. 47 source data",3.715
same,"Th-T fluorescence, mean of three wells","time-course reading M98, Supplementary Fig. 47 source data",3.727
same,"Th-T fluorescence, mean of three wells","time-course reading M99, Supplementary Fig. 47 source data",3.7169
same,"Th-T fluorescence, mean of three wells","time-course reading M100, Supplementary Fig. 47 source data",3.715
same,"Th-T fluorescence, mean of three wells","time-course reading M101, Supplementary Fig. 47 source data",3.715
same,"Th-T fluorescence, mean of three wells","time-course reading M102, Supplementary Fig. 47 source data",3.7
same,"Th-T fluorescence, mean of three wells","time-course reading M103, Supplementary Fig. 47 source data",3.686
same,"Th-T fluorescence, mean of three wells","time-course reading M104, Supplementary Fig. 47 source data",3.695
same,"Th-T fluorescence, mean of three wells","time-course reading M105, Supplementary Fig. 47 source data",3.722
same,"Th-T fluorescence, mean of three wells","time-course reading M106, Supplementary Fig. 47 source data",3.704
same,"Th-T fluorescence, mean of three wells","time-course reading M107, Supplementary Fig. 47 source data",3.71
same,"Th-T fluorescence, mean of three wells","time-course reading M108, Supplementary Fig. 47 source data",3.718
same,"Th-T fluorescence, mean of three wells","time-course reading M109, Supplementary Fig. 47 source data",3.713
same,"Th-T fluorescence, mean of three wells","time-course reading M110, Supplementary Fig. 47 source data",3.7
same,"Th-T fluorescence, mean of three wells","time-course reading M111, Supplementary Fig. 47 source data",3.699
same,"Th-T fluorescence, mean of three wells","time-course reading M112, Supplementary Fig. 47 source data",3.698
same,"Th-T fluorescence, mean of three wells","time-course reading M113, Supplementary Fig. 47 source data",3.697
same,"Th-T fluorescence, mean of three wells","time-course reading M114, Supplementary Fig. 47 source data",3.674
same,"Th-T fluorescence, mean of three wells","time-course reading M115, Supplementary Fig. 47 source data",3.682
same,"Th-T fluorescence, mean of three wells","time-course reading M116, Supplementary Fig. 47 source data",3.669
